Source: patent publication US20240092835A1, “NOVEL PEPTIDES CAPABLE OF ALTERING NK CELL ACTIVITY” (Massachusetts Institute of Technology, priority 2022, published 2024)

Experiments:
Type in all cases: cell-based, human
[1] = system: NKG2A−/NKG2C− NK cells; assay: NK cell activation markers in control NKG2A-/NKG2C- NK cells incubated with peptide and K562 expressing HLA-E
Procedure: (§1) A human immortalized myelogenous leukemia cell line (K562), which expresses HLA-E was incubated with novel peptides (Table 1) derived from the human proteome or human cytomegalovirus proteome. […] Controls assessments were also performed using NKG2A−/NKG2C− cells (Tables 10-13). Inhibition was indicated by a decrease in percent cells positive for cell surface markers, while activation was indicated by an increase in percent cells positive for cell surface markers.

[2] = system: NKG2A−/NKG2C+ NK cells; assay: NK cell activation markers in NKG2A-/NKG2C+ NK cells incubated with peptide and K562 expressing HLA-E (activation); conditions: NKG2A-/NKG2C+ NK cells, K562/HLA-E
Procedure: as §1

[3] = system: NKG2A+/NKG2C− NK cells; assay: NK cell activation markers in NKG2A+/NKG2C- NK cells incubated with peptide and K562 expressing HLA-E (inhibition); conditions: NKG2A+/NKG2C- NK cells, K562/HLA-E
Procedure: as §1

VMAPQSLLL [VMAPQSLLL (PQS), negative control peptide, reference compound]
percentage CCL3+ NK cells ([1]; Trial 1): 35.1% | percentage CD107+ NK cells ([1]; Trial 1): 24.1% | percentage TNF+ NK cells ([1]; Trial 1): 3.46% | percentage of IFNG+ NK cells ([1]; Trial 1): 14% | percentage CCL3+ NK cells ([1]; Trial 2): 57.7% | percentage CD107+ NK cells ([1]; Trial 2): 37.9% | percentage TNF+ NK cells ([1]; Trial 2): 9.07% | percentage of IFNG+ NK cells ([1]; Trial 2): 27.9% | percentage CCL3+ NK cells ([1]; Trial 3): 59.4% | percentage CD107+ NK cells ([1]; Trial 3): 53% | percentage TNF+ NK cells ([1]; Trial 3): 22.6% | percentage of IFNG+ NK cells ([1]; Trial 3): 48.3% | percentage CCL3+ NK cells ([1]; Trial 4): 35% | percentage CD107+ NK cells ([1]; Trial 4): 28% | percentage TNF+ NK cells ([1]; Trial 4): 8.23% | percentage of IFNG+ NK cells ([1]; Trial 4): 19% | percentage CCL3+ NK cells ([1]; Trial 5): 34% | percentage CD107+ NK cells ([1]; Trial 5): 24.4% | percentage TNF+ NK cells ([1]; Trial 5): 8.67% | percentage of IFNG+ NK cells ([1]; Trial 5): 18.6% | percentage CCL3+ NK cells ([1]; Trial 6): 22.4% | percentage CD107+ NK cells ([1]; Trial 6): 19.5% | percentage TNF+ NK cells ([1]; Trial 6): 4.08% | percentage of IFNG+ NK cells ([1]; Trial 6): 10% | percentage of CCL3+ NK cells ([2]; Trial 1): 47% | percentage of CD107+ NK cells ([2]; Trial 1): 25.2% | percentage of IFNG+ NK cells ([2]; Trial 1): 10.6% | percentage of TNF+ NK cells ([2]; Trial 1): 4.96% | percentage of CCL3+ NK cells ([2]; Trial 2): 55.3% | percentage of CD107+ NK cells ([2]; Trial 2): 32.8% | percentage of IFNG+ NK cells ([2]; Trial 2): 12.7% | percentage of TNF+ NK cells ([2]; Trial 2): 9.31% | percentage of CCL3+ NK cells ([2]; Trial 3): 69.4% | percentage of CD107+ NK cells ([2]; Trial 3): 58.6% | percentage of IFNG+ NK cells ([2]; Trial 3): 40.7% | percentage of TNF+ NK cells ([2]; Trial 3): 31.2% | percentage of CCL3+ NK cells ([2]; Trial 4): 58.6% | percentage of CD107+ NK cells ([2]; Trial 4): 53.6% | percentage of IFNG+ NK cells ([2]; Trial 4): 35.6% | percentage of TNF+ NK cells ([2]; Trial 4): 25.7% | percentage of CCL3+ NK cells ([2]; Trial 5): 55.4% | percentage of CD107+ NK cells ([2]; Trial 5): 43% | percentage of IFNG+ NK cells ([2]; Trial 5): 19.9% | percentage of TNF+ NK cells ([2]; Trial 5): 14.7% | percentage of CCL3+ NK cells ([2]; Trial 6): 32.7% | percentage of CD107+ NK cells ([2]; Trial 6): 22.3% | percentage of IFNG+ NK cells ([2]; Trial 6): 10.3% | percentage of TNF+ NK cells ([2]; Trial 6): 5.08% | percentage of CCL3+ NK cells ([3]; Trial 1): 49.8% | percentage of CD107a+ NK cells ([3]; Trial 1): 29.1% | percentage of IFNG+ NK cells ([3]; Trial 1): 10.1% | percentage of TNF+ NK cells ([3]; Trial 1): 2.95% | percentage of CCL3+ NK cells ([3]; Trial 2): 70.6% | percentage of CD107a+ NK cells ([3]; Trial 2): 47.4% | percentage of IFNG+ NK cells ([3]; Trial 2): 27.3% | percentage of TNF+ NK cells ([3]; Trial 2): 13.3% | percentage of CCL3+ NK cells ([3]; Trial 3): 58.2% | percentage of CD107a+ NK cells ([3]; Trial 3): 46.5% | percentage of IFNG+ NK cells ([3]; Trial 3): 35.1% | percentage of TNF+ NK cells ([3]; Trial 3): 18.8% | percentage of CCL3+ NK cells ([3]; Trial 4): 50.7% | percentage of CD107a+ NK cells ([3]; Trial 4): 40.7% | percentage of IFNG+ NK cells ([3]; Trial 4): 23.1% | percentage of TNF+ NK cells ([3]; Trial 4): 11.6% | percentage of CCL3+ NK cells ([3]; Trial 5): 47.7% | percentage of CD107a+ NK cells ([3]; Trial 5): 30.1% | percentage of IFNG+ NK cells ([3]; Trial 5): 14.1% | percentage of TNF+ NK cells ([3]; Trial 5): 6.1% | percentage of CCL3+ NK cells ([3]; Trial 6): 31.3% | percentage of CD107a+ NK cells ([3]; Trial 6): 24.4% | percentage of IFNG+ NK cells ([3]; Trial 6): 8.37% | percentage of TNF+ NK cells ([3]; Trial 6): 4.14%

VMAPRTLIL [VMAPRTLIL (LIL), positive control peptide, reference compound]
percentage CCL3+ NK cells ([1]; Trial 1): 31.4% | percentage CD107+ NK cells ([1]; Trial 1): 24.4% | percentage TNF+ NK cells ([1]; Trial 1): 3.46% | percentage of IFNG+ NK cells ([1]; Trial 1): 15.5% | percentage CCL3+ NK cells ([1]; Trial 2): 54% | percentage CD107+ NK cells ([1]; Trial 2): 33.4% | percentage TNF+ NK cells ([1]; Trial 2): 7.41% | percentage of IFNG+ NK cells ([1]; Trial 2): 22.8% | percentage CCL3+ NK cells ([1]; Trial 3): 46.1% | percentage CD107+ NK cells ([1]; Trial 3): 43.2% | percentage TNF+ NK cells ([1]; Trial 3): 13.6% | percentage of IFNG+ NK cells ([1]; Trial 3): 36.7% | percentage CCL3+ NK cells ([1]; Trial 4): 30.8% | percentage CD107+ NK cells ([1]; Trial 4): 26.4% | percentage TNF+ NK cells ([1]; Trial 4): 8.21% | percentage of IFNG+ NK cells ([1]; Trial 4): 18.7% | percentage CCL3+ NK cells ([1]; Trial 5): 23.8% | percentage CD107+ NK cells ([1]; Trial 5): 17.9% | percentage TNF+ NK cells ([1]; Trial 5): 4.32% | percentage of IFNG+ NK cells ([1]; Trial 5): 12.1% | percentage CCL3+ NK cells ([1]; Trial 6): 21.4% | percentage CD107+ NK cells ([1]; Trial 6): 19% | percentage TNF+ NK cells ([1]; Trial 6): 3.8% | percentage of IFNG+ NK cells ([1]; Trial 6): 9.39% | percentage of CCL3+ NK cells ([2]; Trial 1): 76.7% | percentage of CD107+ NK cells ([2]; Trial 1): 74.1% | percentage of IFNG+ NK cells ([2]; Trial 1): 64.1% | percentage of TNF+ NK cells ([2]; Trial 1): 48.5% | percentage of CCL3+ NK cells ([2]; Trial 2): 92% | percentage of CD107+ NK cells ([2]; Trial 2): 87% | percentage of IFNG+ NK cells ([2]; Trial 2): 79.8% | percentage of TNF+ NK cells ([2]; Trial 2): 62.5% | percentage of CCL3+ NK cells ([2]; Trial 3): 85.4% | percentage of CD107+ NK cells ([2]; Trial 3): 85.3% | percentage of IFNG+ NK cells ([2]; Trial 3): 78.1% | percentage of TNF+ NK cells ([2]; Trial 3): 61.4% | percentage of CCL3+ NK cells ([2]; Trial 4): 69% | percentage of CD107+ NK cells ([2]; Trial 4): 73.4% | percentage of IFNG+ NK cells ([2]; Trial 4): 59.7% | percentage of TNF+ NK cells ([2]; Trial 4): 50.4% | percentage of CCL3+ NK cells ([2]; Trial 5): 79.6% | percentage of CD107+ NK cells ([2]; Trial 5): 79.9% | percentage of IFNG+ NK cells ([2]; Trial 5): 72.5% | percentage of TNF+ NK cells ([2]; Trial 5): 66.3% | percentage of CCL3+ NK cells ([2]; Trial 6): 56.6% | percentage of CD107+ NK cells ([2]; Trial 6): 63.2% | percentage of IFNG+ NK cells ([2]; Trial 6): 45.9% | percentage of TNF+ NK cells ([2]; Trial 6): 35.5% | percentage of CCL3+ NK cells ([3]; Trial 1): 1.59% | percentage of CD107a+ NK cells ([3]; Trial 1): 0.35% | percentage of IFNG+ NK cells ([3]; Trial 1): 0% | percentage of TNF+ NK cells ([3]; Trial 1): 0% | percentage of CCL3+ NK cells ([3]; Trial 2): 14.4% | percentage of CD107a+ NK cells ([3]; Trial 2): 2.73% | percentage of IFNG+ NK cells ([3]; Trial 2): 0.59% | percentage of TNF+ NK cells ([3]; Trial 2): 0.39% | percentage of CCL3+ NK cells ([3]; Trial 3): 4.32% | percentage of CD107a+ NK cells ([3]; Trial 3): 1.95% | percentage of IFNG+ NK cells ([3]; Trial 3): 0.87% | percentage of TNF+ NK cells ([3]; Trial 3): 0.46% | percentage of CCL3+ NK cells ([3]; Trial 4): 0.75% | percentage of CD107a+ NK cells ([3]; Trial 4): 0.77% | percentage of IFNG+ NK cells ([3]; Trial 4): 0.08% | percentage of TNF+ NK cells ([3]; Trial 4): 0.08% | percentage of CCL3+ NK cells ([3]; Trial 5): 1.56% | percentage of CD107a+ NK cells ([3]; Trial 5): 0.56% | percentage of IFNG+ NK cells ([3]; Trial 5): 0.06% | percentage of TNF+ NK cells ([3]; Trial 5): 0.06% | percentage of CCL3+ NK cells ([3]; Trial 6): 0.92% | percentage of CD107a+ NK cells ([3]; Trial 6): 0.92% | percentage of IFNG+ NK cells ([3]; Trial 6): 0.05% | percentage of TNF+ NK cells ([3]; Trial 6): 0.05%
